The source of these data is patent publication US10716769B2 (GUANGZHOU JTREAT BIOSCI. LTD., priority 2015, dated 2020).

One may read the IC50 as the concentration that gives 50% inhibition.

SMILES strings stand for the structures. Converted amounts (≈) assume the structure as drawn.

For one test, the target named is T1, HIV-1 integrase (Human immunodeficiency virus type 1 group M subtype B, UniProt P04585).
T1 construct: purified HIV-1 integrase is added to donor substrates coated 96-well plate; made in house
Nature of the test: Test of sample inhibition to HIV-1 integrase (ELISA, strand transfer). Format: biochemical. As to the method: The half-inhibitory concentration IC50 for 3′ excision of the substrate and the strand transfer is in the range of 88.92-10.20 μg/ml, in which the best inhibitory activity of the compound is higher than that of the monomer compound of hydroxybenzoic acid. The mechanism of the HIV-1 integrase is a two-step reaction: 1) 3′ Processing: the integrase binds to the specific sequences of the long terminal repeat region (LTR) of the proviral DNA to form a stable complex, then the endonucleotides of 3′ end of nucleoside is processed, and the GT dinucleotide of the sequence . . . […] Thus, the activity of the integrase inhibitor is embodied in inhibiting the excision of the 3′end of the viral DNA or the strand transfer, and is represented by a half-inhibitory concentration IC50.
In vitro integrase test, 30 synthetic oligonucleotides are used as donor substrates, 20 synthetic oligonucleotides are used as target substrates. Purified HIV-1 integrase is added to donor substrates coated 96-well plate, ELISA reaction is performed, the product of the strand transfer of target DNA is detected, color development is conducted by biotin-labeled alkaline phosphatase system, and the microplate reader is used to measure the OD value.
First, inhibitors of the enzyme may be screened by adding a sample to the reaction system. Before use, the sample is prepared with DMSO to an appropriate concentration, and then is diluted 5 times at 4 dilutions. The sample after dilution is added into the donor substrate coated 96-well plate, and then added to the reaction Buffer containing the genetically engineered target enzyme and the biotin-target substrate, incubated under optimal reaction conditions, and colored by biotin-labeled alkaline phosphatase system, and the OD value for absorbance value at 405 nm is measured.
30 synthetic oligonucleotides are used as donor substrates, 20 synthetic oligonucleotides are used as target substrates, purified HIV-1 integrase is added to donor substrates coated 96-well plate, ELISA reaction is performed, the product of the strand transfer of target DNA is detected, color development is conducted by biotin-labeled alkaline phosphatase system, and the OD value is measured by a microplate reader. The addition of samples to the reaction system can be used to screen inhibitors for the enzyme.
1. HIV-1 IN: it is extracted and saved by Chinese National New Drug Screening Center and Institute of Pharmaceutical Biotechnology under Chinese Academy of Medical Sciences.
2. Sample Treatment: 10 samples A1-A10 dissolved into DMSO prior to use are prepared into suitable concentrations, and then diluted 5 times at 4 dilutions. Donor substrate and target substrate are from Shanghai Biochemical Synthesis.
3. Method for Test: the samples after dilution are added into the donor substrate coated 96-well plate, then added to the reaction Buffer containing the genetically engineered target enzyme and the biotin-target substrate, incubated under optimal reaction conditions, and colored by biotin-labeled alkaline phosphatase system, and the OD value for absorbance value at 405 nm is measured.
(In an ELISA, binding on a coated surface is turned into a signal by an enzyme label.)

The next test relates to HSV-II, SAV strain. Nature of the test: Inhibition of cytopathic effects of Vero cells caused by herpes virus type II. In kind it is cell-based. The note with it: Human alphaherpesvirus 2; Vero cells, CPE 48 hours, Reed-Muench; read-out: IC50 Against HSV-II. The source says: (§1) Vero cells (kidney cells of African green monkey) are used as viral hosts to test the inhibition degree of the samples to the cytopathic effects of Vero cells caused by herpes virus type I and type II.
(§2) Vero cells (kidney cells of African green monkey) are used as viral hosts to test the inhibition degree of the samples to cytopathic effects of the Vero cell caused by herpes virus type I and type II.
(§3) 1. Virus strains: HSV-I, VR733 strain, and HSV-II, SAV strain, which both are provided by ATCC.
(§4) 2. Sample treatment: the sample is dissolved in DMSO at an appropriate concentration before use, and diluted with the culture medium 3 times at a total of 8 dilutions for test.
(§5) 3. Positive control drug: acyclovir (ACV) produced by the Hubei Ke Yi pharmaceutical factory.

Another test has as its system HSV-I, VR733 strain. Nature of the test: Inhibition of cytopathic effects of Vero cells caused by herpes virus type I. In kind it is cell-based. The note with it: Human alphaherpesvirus 1; Vero cells, CPE 48 hours, Reed-Muench; read-out: IC50 Against HSV-1.
Description: as §1, §2, §3, §4, §5

Consider `O=C(c1cc(O)c(O)cc1O)c1ccc(O)c(O)c1O`, for which it took 37.8 µM to reach half-maximal inhibition against HIV-1 integrase (IC50).
As for `O=C(c1ccc(O)c(O)c1O)c1ccc(O)c(O)c1O` [2,3,4,2′,3′,4′-hexahydroxybenzophenone], the IC50 in the test on HSV-II, SAV strain is 10.8 µg/mL (≈ 39 µM); in the test on HSV-I, VR733 strain, 28.7 µg/mL (≈ 103 µM); against HIV-1 integrase, 32.8 µM.
Consider `O=C(c1ccccc1)c1ccc(O)c(O)c1O` [2,3,4-trihydroxybenzophenone], for which the 50% inhibitory concentration (IC50) in the test with HSV-II, SAV strain is 28.7 µg/mL (≈ 125 µM); with HSV-I, VR733 strain it was 28.7 µg/mL (≈ 125 µM); against HIV-1 integrase, 52.6 µM.
Consider `O=C(c1ccc(O)cc1O)c1ccc(O)cc1O` [2,4,2′,4′-tetrahydroxybenzophenone], for which the 50% inhibitory concentration (IC50) in the test with HSV-II, SAV strain was 28.7 µg/mL (≈ 117 µM); with HSV-I, VR733 strain it was 28.7 µg/mL (≈ 117 µM); against HIV-1 integrase, 45.6 µM.
